These results are taken from ChEMBL document CHEMBL1143539, “A fluorimetric assay for the spontaneous release of an N7-alkylguanine residue from duplex DNA” (Bioorg Med Chem Lett, 2005).

Type in all cases: ADME
A short description of data set [1]: Half-life by fluorescence method at 25 degrees C.
Data set [2] can be described thus: Half-life by fluorescence method at 30 degrees C.
Data set [3] in a line: Half-life by fluorescence method at 37 degrees C.

`C[C@H]1NC(=O)CC2([C@@](C)(O)C(=O)O)CC[C@@](C)(n3cnc4nc(N)nc(O)c43)[C@@H](S2)[C@@H](O)C(=O)/C=C/C=C\c2csc1n2`: the half-life – broadly, the time needed for the level to fall by half in the phase considered – was 11 h in data set [1], 4.6 h in data set [2] and 2.2 h in data set [3].
